Experimental data published in patent US20240158446A1, “CYCLIC COMPOUND HAVING SELECTIVE INHIBITORY ACTION ON KRAS OVER HRAS AND NRAS” (CHUGAI SEIYAKU KABUSHIKI KAISHA, priority 2021, published 2024).

Assays:
[1] = target: GDP-bound NRAS wild-type protein (Homo sapiens, UniProt P01111); test: Binding to NRAS by surface plasmon resonance (SPR), Single Cycle Kinetics; settings: SPR KD ratio NRAS/KRAS, class symbols
[2] = target: GDP-bound HRAS wild-type protein (Homo sapiens, UniProt P01112); test: Binding to HRAS by surface plasmon resonance (SPR), Single Cycle Kinetics; settings: SPR KD ratio HRAS/KRAS, class symbols
[3] = target: GDP-bound KRAS wild-type protein (Homo sapiens, UniProt P01116); test: Binding to KRAS by surface plasmon resonance (SPR), Single Cycle Kinetics; settings: SPR Single Cycle Kinetics, GDP-bound KRAS wild-type protein, 1:1 binding model; read-out: KRAS KD
GDP-bound KRAS wild-type protein, sequence (P01116 whole entry): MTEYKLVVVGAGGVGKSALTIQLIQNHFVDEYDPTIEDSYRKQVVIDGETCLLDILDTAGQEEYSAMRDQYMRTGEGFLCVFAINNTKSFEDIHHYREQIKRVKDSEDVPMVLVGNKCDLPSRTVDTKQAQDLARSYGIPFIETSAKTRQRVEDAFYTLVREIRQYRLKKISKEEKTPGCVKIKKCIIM

GDP-bound NRAS wild-type protein, sequence (P01111 whole entry): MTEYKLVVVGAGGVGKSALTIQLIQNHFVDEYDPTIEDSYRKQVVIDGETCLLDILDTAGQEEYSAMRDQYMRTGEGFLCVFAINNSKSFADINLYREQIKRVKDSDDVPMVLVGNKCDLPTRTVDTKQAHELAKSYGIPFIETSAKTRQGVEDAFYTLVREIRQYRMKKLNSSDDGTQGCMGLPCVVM
GDP-bound HRAS wild-type protein, sequence (P01112 whole entry): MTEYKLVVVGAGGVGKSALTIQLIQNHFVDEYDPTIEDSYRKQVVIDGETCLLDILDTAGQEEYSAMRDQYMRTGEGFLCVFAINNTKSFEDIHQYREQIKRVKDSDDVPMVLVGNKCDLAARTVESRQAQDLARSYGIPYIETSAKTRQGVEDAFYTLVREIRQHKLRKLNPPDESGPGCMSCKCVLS

Row | SMILES | NRAS/KRAS (ratio of KD value with respect to GDP-bound NRAS wild-type protein to KD value with respect to KRAS) [1] | HRAS/KRAS (ratio of KD value with respect to GDP-bound HRAS wild-type protein to KD value with respect to KRAS) [2] | Kd [3] [pM]
1 | CCO[C@@H]1C[C@H]2C(=O)NC3(CC(C)(C)C3)C(=O)N(C)[C@@H](C3CCCC3)C(=O)N(C)[C@H](C(=O)N(C)CC)CC(=O)N(C)[C@@H](COC)C(=O)N[C@@H]([C@@H](C)CC)C(=O)N(C)CC(=O)N(C)[C@H]3C/C=C\CCN(C3=O)[C@@H](Cc3ccc(C(F)(F)F)cc3)C(=O)N(C)CC(=O)N[C@@H](CCc3ccc(Cl)c(Cl)c3)C(=O)N2C1 [PP2835] | A (a compound having 10 or more and less than 20 is denoted as A) | A (a compound having 10 or more and less than 20 is denoted as A) | 190
2 | CCO[C@@H]1C[C@H]2C(=O)NC3(CC(C)(C)C3)C(=O)N(C)[C@@H](C3CCCC3)C(=O)N(C)[C@H](C(=O)N(C)CC)CC(=O)N(C)[C@@H](COC)C(=O)N[C@@H]([C@@H](C)CC)C(=O)N(C)CC(=O)N(C)[C@H]3C/C=C\CCN(C3=O)[C@@H](Cc3ccc(C(F)(F)F)cc3)C(=O)N(C)CC(=O)N[C@@H](CCc3ccc(C(F)(F)F)c(Cl)c3)C(=O)N2C1 [PP2836] | A (a compound having 10 or more and less than 20 is denoted as A) | A (a compound having 10 or more and less than 20 is denoted as A) | 65
3 | CCO[C@@H]1C[C@H]2C(=O)NC3(CCCC3)C(=O)N(C)[C@@H](C3CCCC3)C(=O)N(C)[C@H](C(=O)N(C)C)CC(=O)N(C)[C@@H](CC(C)C)C(=O)N[C@@H]([C@@H](C)CC)C(=O)N(C)CC(=O)N(C)[C@H]3C/C=C\CCN(C3=O)[C@@H](Cc3ccc(C(F)(F)F)cc3)C(=O)N(C)CC(=O)N[C@@H](CCc3ccc(Cl)c(Cl)c3)C(=O)N2C1 [PP2837] | AA (a compound having 20 or more is denoted as AA) | A (a compound having 10 or more and less than 20 is denoted as A) | 210
4 | CCO[C@@H]1C[C@H]2C(=O)NC3(CCCC3)C(=O)N(C)[C@@H](C3CCCC3)C(=O)N(C)[C@H](C(=O)N(C)C)CC(=O)N(C)[C@@H](CC(C)C)C(=O)N[C@@H]([C@@H](C)CC)C(=O)N(C)CC(=O)N(C)[C@H]3C/C=C\CCN(C3=O)[C@@H](Cc3ccc(C(F)(F)F)cc3)C(=O)N(C)CC(=O)N[C@@H](CCc3ccc(C(F)(F)F)c(Cl)c3)C(=O)N2C1 [PP2838] | AA (a compound having 20 or more is denoted as AA) | A (a compound having 10 or more and less than 20 is denoted as A) | 66
5 | CCCC[C@H]1C(=O)N[C@@H]([C@@H](C)CC)C(=O)N(C)CC(=O)N(C)[C@H]2C/C=C\CCN(C2=O)[C@@H](Cc2ccc(C(F)(F)F)cc2)C(=O)N(C)CC(=O)N[C@@H](CCc2ccc(C(F)(F)F)c(OC)c2)C(=O)N2C[C@H](OCC)C[C@H]2C(=O)NC2(CCC2)C(=O)N(C)[C@@H](C2CCCC2)C(=O)N(C)[C@H](C(=O)N(C)CC)CC(=O)N1C [PP2840] | A (a compound having 10 or more and less than 20 is denoted as A) | A (a compound having 10 or more and less than 20 is denoted as A) | 100
6 | CCO[C@@H]1C[C@H]2C(=O)NC3(CCC3)C(=O)N(C)[C@@H](C3CCCC3)C(=O)N(C)[C@H](C(=O)N(C)C)CC(=O)N(C)[C@@H](CC3CCCC3)C(=O)N[C@@H]([C@@H](C)CC)C(=O)N(C)CC(=O)N(C)[C@H]3C/C=C\CCN(C3=O)[C@@H](Cc3ccc(C(F)(F)F)cc3)C(=O)N(C)CC(=O)N[C@@H](CCc3ccc(C(F)(F)F)c(Cl)c3)C(=O)N2C1 [PP2842] | A (a compound having 10 or more and less than 20 is denoted as A) | B (a compound having 3 or more and less than 10 is denoted as B) | 80
7 | C#CC[C@H]1C(=O)N[C@@H]([C@@H](C)CC)C(=O)N(C)CC(=O)N(C)[C@H]2C/C=C\CCN(C2=O)[C@@H](Cc2ccc(C(F)(F)F)cc2)C(=O)N(C)CC(=O)N[C@@H](CCc2ccc(Cl)c(Cl)c2)C(=O)N2C[C@H](OCC)C[C@H]2C(=O)NC2(CC(C)(C)C2)C(=O)N(C)[C@@H](C2CCCC2)C(=O)N(C)[C@H](C(=O)N(C)CC)CC(=O)N1C [PP2843] | A (a compound having 10 or more and less than 20 is denoted as A) | A (a compound having 10 or more and less than 20 is denoted as A) | 260
8 | C#CC[C@H]1C(=O)N[C@@H]([C@@H](C)CC)C(=O)N(C)CC(=O)N(C)[C@H]2C/C=C\CCN(C2=O)[C@@H](Cc2ccc(C(F)(F)F)cc2)C(=O)N(C)CC(=O)N[C@@H](CCc2ccc(C(F)(F)F)c(Cl)c2)C(=O)N2C[C@H](OCC)C[C@H]2C(=O)NC2(CC(C)(C)C2)C(=O)N(C)[C@@H](C2CCCC2)C(=O)N(C)[C@H](C(=O)N(C)CC)CC(=O)N1C [PP2844] | A (a compound having 10 or more and less than 20 is denoted as A) | A (a compound having 10 or more and less than 20 is denoted as A) | 120
9 | CCO[C@@H]1C[C@H]2C(=O)NC3(CCC3)C(=O)N(C)[C@@H](C3CCCC3)C(=O)N(C)[C@H](C(=O)N(C)CC)CC(=O)N(C)[C@@H](CC(C)C)C(=O)N[C@@H]([C@@H](C)CC)C(=O)N(C)CC(=O)N(C)[C@H]3C/C=C\CCN(C3=O)[C@@H](Cc3ccc(C(F)(F)F)cc3)C(=O)N(C)CC(=O)N[C@@H](CCc3ccc(C(F)(F)F)c(OC)c3)C(=O)N2C1 [PP2846] | AA (a compound having 20 or more is denoted as AA) | A (a compound having 10 or more and less than 20 is denoted as A) | 91
10 | CCC[C@H]1C(=O)N[C@@H]([C@@H](C)CC)C(=O)N(C)CC(=O)N(C)[C@H]2C/C=C\CCN(C2=O)[C@@H](Cc2ccc(C(F)(F)F)cc2)C(=O)N(C)CC(=O)N[C@@H](CCc2ccc(CC)c(Cl)c2)C(=O)N2C[C@H](OCC)C[C@H]2C(=O)NC2(CC(C)(C)C2)C(=O)N(C)[C@@H](C2CCCC2)C(=O)N(C)[C@H](C(=O)N(C)C)CC(=O)N1C [PP2848] | A (a compound having 10 or more and less than 20 is denoted as A) | A (a compound having 10 or more and less than 20 is denoted as A) | 470
11 | CCC[C@H]1C(=O)N[C@@H]([C@@H](C)CC)C(=O)N(C)CC(=O)N(C)[C@H]2C/C=C\CCN(C2=O)[C@@H](Cc2ccc(C(F)(F)F)cc2)C(=O)N(C)CC(=O)N[C@@H](CCc2cc(F)c3c(c2)CCC3)C(=O)N2C[C@H](OCC)C[C@H]2C(=O)NC2(CC(C)(C)C2)C(=O)N(C)[C@@H](C2CCCC2)C(=O)N(C)[C@H](C(=O)N(C)C)CC(=O)N1C [PP2849] | A (a compound having 10 or more and less than 20 is denoted as A) | A (a compound having 10 or more and less than 20 is denoted as A) | 580
12 | CCC[C@H]1C(=O)N[C@@H]([C@@H](C)CC)C(=O)N(C)CC(=O)N(C)[C@H]2C/C=C\CCN(C2=O)[C@@H](Cc2ccc(C(F)(F)F)cc2)C(=O)N(C)CC(=O)N[C@@H](CCc2cc(Cl)c3sccc3c2)C(=O)N2C[C@H](OCC)C[C@H]2C(=O)NC2(CC(C)(C)C2)C(=O)N(C)[C@@H](C(CC)CC)C(=O)N(C)[C@H](C(=O)N(C)C)CC(=O)N1C [PP2888] | AA (a compound having 20 or more is denoted as AA) | A (a compound having 10 or more and less than 20 is denoted as A) | 390
13 | CCC[C@H]1C(=O)N[C@@H]([C@@H](C)CC)C(=O)N(C)CC(=O)N(C)[C@H]2C/C=C\CCN(C2=O)[C@@H](Cc2ccc(C(F)(F)F)cc2)C(=O)N(C)CC(=O)N[C@@H](CCc2ccc3sc(C)c(C)c3c2)C(=O)N2C[C@H](OCC)C[C@H]2C(=O)NC2(CC(C)(C)C2)C(=O)N(C)[C@@H](C2CCCC2)C(=O)N(C)[C@H](C(=O)N(C)C)CC(=O)N1C [PP2889] | A (a compound having 10 or more and less than 20 is denoted as A) | A (a compound having 10 or more and less than 20 is denoted as A) | 290
14 | CCC[C@H]1C(=O)N[C@@H]([C@@H](C)CC)C(=O)N(C)CC(=O)N(C)[C@H]2C/C=C\CCN(C2=O)[C@@H](Cc2ccc(C)cc2)C(=O)N(C)CC(=O)N[C@@H](CCc2cc(Cl)c3sccc3c2)C(=O)N2C[C@H](OCC)C[C@H]2C(=O)NC2(CC(C)(C)C2)C(=O)N(C)[C@@H](C(CC)CC)C(=O)N(C)[C@H](C(=O)N(C)C)CC(=O)N1C [PP2890] | AA (a compound having 20 or more is denoted as AA) | A (a compound having 10 or more and less than 20 is denoted as A) | 420
15 | CCC[C@H]1C(=O)N[C@@H]([C@@H](C)CC)C(=O)N(C)CC(=O)N(C)[C@H]2C/C=C\CCN(C2=O)[C@@H](Cc2ccc(C(F)(F)F)cc2)C(=O)N(C)CC(=O)N[C@@H](CCc2ccc3sc(F)c(C)c3c2)C(=O)N2C[C@H](OCC)C[C@H]2C(=O)NC2(CC(C)(C)C2)C(=O)N(C)[C@@H](C(CC)CC)C(=O)N(C)[C@H](C(=O)N(C)C)CC(=O)N1C [PP2892] | A (a compound having 10 or more and less than 20 is denoted as A) | A (a compound having 10 or more and less than 20 is denoted as A) | 280
